This is an account of results in patent publication US8148422B2, “Sulfonamides as TRPM8 modulators” (Janssen Pharmaceutica, NV, priority 2008, dated 2012).

The test has as its target T1, canine TRPM8 (Canis lupus familiaris, UniProt Q1A7N1).
T1 construct: expressed in transfected cells
The test can be described thus: In vitro canine TRPM8 functional assay (Ca2+-sensitive fluorescent dye, FLIPR or FDSS, icilin challenge). As to conditions: HEK293 cells stably expressing canine TRPM8; for inhibition at 0.2 µM: 0.2 μM compound, icilin challenge; for IC50: icilin at approx. 80% maximal response, eight-point dose-response, single determinations unless otherwise noted, read-out: IC50. The class given is cell-based. The essentials:
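Cells (HEK293, stable canine TRPM8) are seeded 24 h before assay. They are then dye-loaded with Calcium 3 at 37 °C followed by room temperature. Compound is added and monitored for 5 min, after which icilin (~80% maximal response) is added.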

T1 sequence (Q1A7N1 1-1104): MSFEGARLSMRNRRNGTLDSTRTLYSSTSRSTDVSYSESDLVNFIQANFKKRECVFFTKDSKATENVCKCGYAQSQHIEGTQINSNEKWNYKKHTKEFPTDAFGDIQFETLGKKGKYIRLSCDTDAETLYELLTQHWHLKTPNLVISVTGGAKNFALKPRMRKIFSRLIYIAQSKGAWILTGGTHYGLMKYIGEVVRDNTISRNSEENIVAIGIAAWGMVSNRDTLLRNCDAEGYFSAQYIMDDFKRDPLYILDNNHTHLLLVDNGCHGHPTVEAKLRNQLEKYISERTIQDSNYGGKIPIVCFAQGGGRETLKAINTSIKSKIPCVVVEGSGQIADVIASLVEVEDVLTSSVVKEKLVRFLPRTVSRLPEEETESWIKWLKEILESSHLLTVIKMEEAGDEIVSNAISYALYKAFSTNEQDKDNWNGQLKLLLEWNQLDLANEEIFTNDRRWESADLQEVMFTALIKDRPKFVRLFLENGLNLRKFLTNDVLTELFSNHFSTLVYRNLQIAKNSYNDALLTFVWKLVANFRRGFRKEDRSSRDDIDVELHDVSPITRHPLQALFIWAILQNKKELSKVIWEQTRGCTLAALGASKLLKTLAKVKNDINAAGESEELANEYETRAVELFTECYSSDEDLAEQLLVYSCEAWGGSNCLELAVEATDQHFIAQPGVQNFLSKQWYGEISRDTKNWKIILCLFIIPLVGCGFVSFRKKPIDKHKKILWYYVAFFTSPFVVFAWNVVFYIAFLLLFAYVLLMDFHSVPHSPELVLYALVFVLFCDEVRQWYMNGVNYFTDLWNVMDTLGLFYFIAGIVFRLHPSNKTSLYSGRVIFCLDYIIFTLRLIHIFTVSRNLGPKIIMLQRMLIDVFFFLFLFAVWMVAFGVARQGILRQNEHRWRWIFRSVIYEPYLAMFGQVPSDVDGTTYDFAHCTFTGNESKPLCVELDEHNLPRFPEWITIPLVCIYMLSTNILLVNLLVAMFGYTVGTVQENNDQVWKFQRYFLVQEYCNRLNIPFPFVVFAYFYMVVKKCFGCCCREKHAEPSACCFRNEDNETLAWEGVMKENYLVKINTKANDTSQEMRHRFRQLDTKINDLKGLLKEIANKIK

For the compound `O=S(=O)(CCN1CCCCC1)N(Cc1ccc(OC(F)(F)F)cc1)c1sc2ccccc2c1Br` [Cpd 64, N-(3-Bromobenzo[b]thiophen-2-yl)-N-(4-trifluoromethoxy-benzyl)-2-(N-piperidinyl)ethylsulfonamide], the inhibition – broadly, the change of the read-out against control, counted positive when it falls – at 0.2 µM is 101% and the IC50 (in general, the midpoint of a concentration-inhibition curve) stood at 27 nM.
For the compound `CC(=O)N1CCN(CCS(=O)(=O)N(Cc2ccc(OC(F)(F)F)cc2)c2sc3ccccc3c2Br)CC1` [Cpd 65, N-(3-Bromobenzo[b]thiophen-2-yl)-N-(4-trifluoromethoxy-benzyl)-2-(4-acetyl-1-piperazinyl)ethylsulfonamide], the inhibition at 0.2 µM was 101% and the IC50 amounted to 41 nM.
On to `O=S(=O)(CCN1CCSCC1)N(Cc1ccc(OC(F)(F)F)cc1)c1sc2ccccc2c1Br` [Cpd 66, N-(3-Bromobenzo[b]thiophen-2-yl)-N-(4-trifluoromethoxy-benzyl)-2-(thiomorpholin-4-yl)ethylsulfonamide], for which the inhibition at 0.2 µM came out at 100% and the IC50 was 29 nM.
For the compound `O=S(=O)(CCN1CCCC(F)(F)C1)N(Cc1ccc(OC(F)(F)F)cc1)c1sc2ccccc2c1Br` [Cpd 67, N-(3-Bromobenzo[b]thiophen-2-yl)-N-(4-trifluoromethoxy-benzyl)-2-(3,3-difluoropiperidin-1-yl)ethylsulfonamide], the inhibition at 0.2 µM amounted to 102% and the IC50 amounted to 9 nM.
For `O=S(=O)(CCN1CCC(F)(F)C1)N(Cc1ccc(OC(F)(F)F)cc1)c1sc2ccccc2c1Br` [Cpd 68, N-(3-Bromobenzo[b]thiophen-2-yl)-N-(4-trifluoromethoxy-benzyl)-2-(3,3-difluoropyrrolidin-1-yl)ethylsulfonamide] the same measures were 102% and 72 nM.
With `Cc1c(N(Cc2ccc(F)cc2)S(=O)(=O)CCN2CCCC(F)(F)C2)sc2ccccc12` [Cpd 69, N-(3-Methyl-benzo[b]thiophen-2-yl)-N-(4-fluoro-benzyl)-2-(3,3-difluoropiperidin-1-yl)-ethylsulfonamide], the inhibition at 0.2 µM was determined as 99% and the IC50 came to 12 nM.
Consider `Cc1c(N(Cc2ccc(F)c(C(F)(F)F)c2)S(=O)(=O)CCN2CCCC(F)(F)C2)sc2ccccc12` [Cpd 70, N-(3-Methylbenzo[b]thiophen-2-yl)-N-(4-fluoro-3-trifluoromethyl-benzyl)-2-(3,3-difluoropiperidin-1-yl)ethylsulfonamide], for which the inhibition at 0.2 µM is 100% and the 50% inhibitory concentration (IC50) amounted to 4 nM.
Consider `Cc1c(N(Cc2ccc(OC(F)(F)F)cc2)S(=O)(=O)CCN2CCC[C@H]2C(F)(F)F)sc2ccccc12` [Cpd 71, N-(3-Methylbenzo[b]thiophen-2-yl)-N-(4-trifluoromethoxy-benzyl)-2-[2(S)-trifluoromethyl-pyrrolidin-1-yl]ethylsulfonamide], for which the inhibition at 0.2 µM was determined as 100% and the half-inhibitory concentration (IC50) came out at 4 nM.
For `Cc1c(N(Cc2ccc(OC(F)(F)F)cc2)S(=O)(=O)CCN2CCC[C@@H]2C(F)(F)F)sc2ccccc12` [Cpd 72, N-(3-Methylbenzo[b]thiophen-2-yl)-N-(4-trifluoromethoxy-benzyl)-2-[2(R)-trifluoromethyl-pyrrolidin-1-yl]ethylsulfonamide], the inhibition at 0.2 µM came to 100% and the IC50 was 10 nM.
For the compound `Cc1c(N(Cc2ccc(OC(F)(F)F)cc2)S(=O)(=O)CCNCC(C)C)sc2ccccc12` [Cpd 73, N-(3-Methylbenzo[b]thiophen-2-yl)-N-(4-trifluoromethoxy-benzyl)-2-(isobutylamino)ethylsulfonamide], the inhibition at 0.2 µM turned out to be 19%.
Turning to `Cc1c(N(CCC2CC2)S(=O)(=O)CCN(C)Cc2ccccc2)sc2ccccc12` [Cpd 75, N-(3-Methylbenzo[b]thiophen-2-yl)-N-(2-cyclopropyl-ethyl)-2-(benzyl-methylamino)ethylsulfonamide], the inhibition at 0.2 µM came out at 89% and the half-inhibitory concentration (IC50) was determined as 59 nM.
Regarding `Cc1c(N(Cc2ccc(F)cc2)S(=O)(=O)CCN(CC(C)C)CC(C)C)sc2ccccc12` [Cpd 76, N-(3-Methylbenzo[b]thiophen-2-yl)-N-(4-fluoro-benzyl)-2-(di-iso-butylamino)ethylsulfonamide], the inhibition at 0.2 µM came to 99% and the IC50 is 25 nM.
As for `Cc1c(N(Cc2ccc(F)cc2)S(=O)(=O)CCN(C)Cc2ccccc2)sc2ccccc12` [Cpd 77, N-(3-Methylbenzo[b]thiophen-2-yl)-N-(4-fluoro-benzyl)-2-(benzyl-methylamino)ethylsulfonamide], the inhibition at 0.2 µM was 97% and the IC50 was 49 nM.
Take `Cc1c(N(CCCCC(F)(F)F)S(=O)(=O)CCN(C)Cc2ccccc2)sc2ccccc12` [Cpd 79, N-(3-Methylbenzo[b]thiophen-2-yl)-N-(5,5,5-trifluoro-n-pent-1-yl)-2-(benzyl-methylamino)ethylsulfonamide]: the inhibition at 0.2 µM was 98% and the IC50 was determined as 37 nM.
As for `Cc1c(N(Cc2ccc(F)c(F)c2)S(=O)(=O)CCN(C)Cc2ccccc2)sc2ccccc12` [Cpd 81, N-(3-Methylbenzo[b]thiophen-2-yl)-N-(3,4-difluoro-benzyl)-2-(benzyl-methylamino)ethylsulfonamide], the inhibition at 0.2 µM worked out at 101% and the 50% inhibitory concentration (IC50) worked out at 36 nM.
As to `CCCN(CCS(=O)(=O)N(Cc1ccc(OC(F)(F)F)cc1)c1sc2ccccc2c1C)CC(C)C` [Cpd 82, N-(3-Methylbenzo[b]thiophen-2-yl)-N-(4-trifluoromethoxy-benzyl)-2-(isobutyl-propylamino)ethylsulfonamide], the inhibition at 0.2 µM was 100% and the IC50 was 16 nM.
With `CCN(CCS(=O)(=O)N(Cc1ccc(OC(F)(F)F)cc1)c1sc2ccccc2c1C)CC(C)C` [Cpd 83, N-(3-Methylbenzo[b]thiophen-2-yl)-N-(4-trifluoromethoxy-benzyl)-2-(isobutyl-ethylamino)ethylsulfonamide], the inhibition at 0.2 µM turned out to be 99% and the IC50 was 17 nM.
On the same counts, the results for `CCOC(=O)C1CCN(CCS(=O)(=O)N(CCC2CC2)c2sc3ccccc3c2C)CC1` [Cpd 84, N-(3-Methylbenzo[b]thiophen-2-yl)-N-(2-cyclopropyl-ethyl)-2-(4-carboethoxypiperidin-1-yl)ethylsulfonamide] are 97% and 72 nM.
Regarding `CCOC(=O)C1CCN(CCS(=O)(=O)N(CCCCC(F)(F)F)c2sc3ccccc3c2C)CC1` [Cpd 85, N-(3-Methylbenzo[b]thiophen-2-yl)-N-(5,5,5-trifluoropent-1-yl)-2-(4-carboethoxypiperidin-1-yl)ethylsulfonamide], the inhibition at 0.2 µM turned out to be 77% and the 50% inhibitory concentration (IC50) came out at 81 nM.
`Cc1c(N(CCCCC(F)(F)F)S(=O)(=O)CCN2CCC(C(=O)O)CC2)sc2ccccc12` [Cpd 86, N-(3-Methylbenzo[b]thiophen-2-yl)-N-(5,5,5-trifluoropent-1-yl)-2-(4-carboxypiperidin-1-yl)ethylsulfonamide]: the inhibition at 0.2 µM came to 34%.
Same read-out and setting: as for `Cc1c(N(CCC2CC2)S(=O)(=O)CCN2CCC(C(=O)O)CC2)sc2ccccc12` [Cpd 87, N-(3-Methylbenzo[b]thiophen-2-yl)-N-(2-cyclopropylethyl)-2-(4-carboxypiperidin-1-yl)ethylsulfonamide], the figure is 29%.
